Source: ChEMBL document CHEMBL1201862, “PubChem BioAssay data set” (2004)
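Step 1: Grow cells in 96-well plates. Step 2: Expose to compound for 48 hours at 5 concentrations. Step 3: Interpolate endpoints linearly; if unreached, use highest concentration. At the GI50, growth is halved.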 Activity calls are given as the source filed them. Cut-off read from the data, not from the text of the source: active = GI50 up to about 1.1 µM and inactive = higher.

What was measured:
Test in all cases: inhibition of tumour cell growth, NCI panel, 48 h
[1] = test system: A498
[2] = test system: CAKI-1
[3] = test system: HCT-116
[4] = test system: HCT-15
[5] = test system: HOP-92
[6] = test system: LOX IMVI
[7] = test system: MCF7
[8] = test system: MDA-MB-435
[9] = test system: NCI-H226
[10] = test system: NCI-H23
[11] = test system: NCI-H460
[12] = test system: NCI/ADR-RES
[13] = test system: RPMI-8226
[14] = test system: SF-539
[15] = test system: SNB-19
[16] = test system: SNB-75
[17] = test system: SW-620
[18] = test system: TK-10
[19] = test system: HOP-62
[20] = test system: MOLT-4

SMILES | GI50 [1] | GI50 [2] | GI50 [3] | GI50 [4] [µM] | GI50 [5] | GI50 [6] | GI50 [7] | GI50 [8] | GI50 [9] | GI50 [10] | GI50 [11] | GI50 [12] | GI50 [13] | GI50 [14] | GI50 [15] | GI50 [16] | GI50 [17] | GI50 [18] | GI50 [19] | GI50 [20]
Cc1cn(C2CC(O)C(CO[Si](C)(C)C(C)(C)C)OC2OC(C)C)c(=O)[nH]c1=O (stereo unspecified) | > 10 µM (inactive) | 55.2 µM (inactive) | 16.5 µM (inactive) | 58.5 | 32.2 µM (inactive) | 18.5 µM (inactive) | 22.4 µM (inactive) | 60 µM (inactive) | 41.9 µM (inactive) | 39.6 µM (inactive) | 31.6 µM (inactive) | 43.1 µM (inactive) | 37.7 µM (inactive) | 21.9 µM (inactive) | 74.8 µM (inactive) | > 100 µM (inactive) | 49.4 µM (inactive) | 39.5 µM (inactive) | – | –
Cn1c2c(c3ccccc31)CCN1C(=O)C3SC21C1C(=O)N(c2ccccc2)C(=O)C31 (stereo unspecified) | 26.4 µM (inactive) | > 100 µM (inactive) | > 100 µM (inactive) | > 100 | > 100 µM (inactive) | > 100 µM (inactive) | 30.4 µM (inactive) | > 100 µM (inactive) | 40.3 µM (inactive) | > 100 µM (inactive) | – | > 100 µM (inactive) | 38.1 µM (inactive) | 39.7 µM (inactive) | > 100 µM (inactive) | – | 36.8 µM (inactive) | 23.8 µM (inactive) | > 100 µM (inactive) | 38.5 µM (inactive)
CSc1ncnc2c1ncn2C1OC(CO)C(O)OC1O (stereo unspecified) | 1.11 µM (active) | 2.58 µM (inactive) | 0.4 µM (active) | 0.506 | 0.822 µM (active) | 0.361 µM (active) | 0.262 µM (active) | 1.7 µM (inactive) | – | 0.721 µM (active) | 0.424 µM (active) | 2.56 µM (inactive) | 1.06 µM (active) | 1.73 µM (inactive) | 10.7 µM (inactive) | 10.9 µM (inactive) | 1.51 µM (inactive) | 0.219 µM (active) | 3.7 µM (inactive) | 0.281 µM (active)
COc1ccc(CCNC(=O)Cc2ccccc2CCO)cc1OC | > 100 µM (inactive) | > 100 µM (inactive) | > 100 µM (inactive) | 14.9 | > 100 µM (inactive) | – | > 100 µM (inactive) | > 100 µM (inactive) | > 100 µM (inactive) | > 100 µM (inactive) | > 100 µM (inactive) | > 100 µM (inactive) | > 100 µM (inactive) | > 100 µM (inactive) | 27.4 µM (inactive) | > 100 µM (inactive) | > 100 µM (inactive) | > 100 µM (inactive) | > 100 µM (inactive) | > 100 µM (inactive)
CCN1CCN(c2nc3ccc([N+](=O)[O-])cc3nc2C(=O)c2ccccc2)CC1 | 30.4 µM (inactive) | 16.7 µM (inactive) | 17.1 µM (inactive) | 12 | 17.8 µM (inactive) | 4.98 µM (inactive) | 18.3 µM (inactive) | 16.3 µM (inactive) | 11.8 µM (inactive) | 17.2 µM (inactive) | 21.8 µM (inactive) | 14.8 µM (inactive) | 12.8 µM (inactive) | 16.1 µM (inactive) | 26 µM (inactive) | – | 21 µM (inactive) | 19.9 µM (inactive) | 20.1 µM (inactive) | 3.23 µM (inactive)
Cc1ccc2c(O)cc(-c3cccc(Cl)c3)nc2n1 | 0.0333 µM (active) | 0.0415 µM (active) | < 0.016 µM (active) | < 0.0192 | 1.25 µM (inactive) | 0.024 µM (active) | < 0.0217 µM (active) | < 0.01 µM (active) | 0.0489 µM (active) | 0.272 µM (active) | < 0.0204 µM (active) | 0.0411 µM (active) | < 0.0212 µM (active) | < 0.01 µM (active) | 0.0705 µM (active) | – | < 0.01 µM (active) | > 59.8 µM (inactive) | 0.0305 µM (active) | < 0.0229 µM (active)
O=C(/C=C/c1ccc(O)c(-c2cc(C(=O)/C=C/c3ccc(O)cc3)c(O)cc2O)c1)c1ccc(O)cc1O [RHUSCHALCONE VI] | > 50 µM (inactive) | > 50 µM (inactive) | 11.5 µM (inactive) | > 50 | 24.6 µM (inactive) | 14.5 µM (inactive) | 20.2 µM (inactive) | 21.4 µM (inactive) | – | 23.9 µM (inactive) | > 50 µM (inactive) | > 50 µM (inactive) | 18.6 µM (inactive) | 11.7 µM (inactive) | 28.6 µM (inactive) | 13.3 µM (inactive) | 19.5 µM (inactive) | > 50 µM (inactive) | 30.9 µM (inactive) | 16.1 µM (inactive)
